{"source": "patent US7309491B2", "about": "“Heat shock protein-based vaccines and immunotherapies” (priority 2003, dated 2007)", "key": {"[1]": {"test_system": "CD8+ T cells", "type": "in vivo, B6 mice"}, "[2]": {"test_system": "SIINFEKL-pulsed target cells", "set-up": "species or system mice", "settings": "mouse, in vivo"}, "[3]": {"test_system": "modified to express ovalbumin (E.G7)", "set-up": "species or system B6 mice", "settings": "mouse, in vivo"}, "[4]": {"test_system": "B3Z cells", "test": "in-vitro antigen presentation assay (IL-2 produced by B3Z cells)", "type": "cell-based", "description": "The in-vitro antigen presentation assay described above was utilized further in order to evaluate the formulations of the invention."}, "[5]": {"settings": "Ex. 17 prime-boost, doses as E100"}}, "note": "Several values for one entry are separate records, joined by “and”; a condition that tells them apart may be missing. Equal entries are not always repeated. Where two headings read alike, the source gives them in different places."}
{"sequence": "NLLRLTGWFRSIINFEKL", "values": [{"measurement": "Number of Spots per 300,000 cells: Medium", "setting": "[1]; mouse, in vivo", "value": "0.67 ± 0.58"}, {"measurement": "Number of Spots per 300,000 cells: SIINFEKL (SEQ ID NO:868)", "setting": "[1]; mouse, in vivo", "value": "12 ± 2"}, {"measurement": "Number of Spots per 300,000 cells: Unpulsed Splenocytes", "setting": "[1]; mouse, in vivo", "value": "0.67 ± 0.58"}, {"measurement": "Number of Spots per 400,000 cells: Medium control", "setting": "[1]; mouse, in vivo", "value": "1.0 ± 1.7 spots per 400,000 cells"}, {"measurement": "Number of Spots per 400,000 cells: Unpulsed control", "setting": "[1]; mouse, in vivo", "value": "0.0 ± 0.0 spots per 400,000 cells"}, {"measurement": "Number of spots per 400,000 cells: VSV control", "setting": "[1]; mouse, in vivo", "value": "0.67 ± 0.58 spots per 400,000 cells"}, {"measurement": "Number of spots per 400,000 cells: SIINFEKL (SEQ ID NO:868)", "setting": "[1]; mouse, in vivo, sc", "value": "31 ± 5.7 spots per 400,000 cells"}]}
{"sequence": "NLLRLTGWFFRKDAPIYTNV (SEQ ID NO:910) (Hybrid antigen)", "values": [{"measurement": "Number of Spots per 300,000 cells, Medium", "setting": "[1]; mouse, in vivo", "value": "0.7 ± 0.4 Spots per 300,000 cells"}, {"measurement": "Number of Spots per 300,000 cells, Response to Class I epitope when Class I and Class II hybrid antigen admixture is administered", "setting": "[1]; mouse, in vivo", "value": "13 ± 3.9 Spots per 300,000 cells"}, {"measurement": "Number of Spots per 300,000 cells, Response to Class I epitope when Class I hybrid antigen administered", "setting": "[1]; mouse, in vivo", "value": "2 ± 1.9 Spots per 300,000 cells"}, {"measurement": "Number of Spots per 300,000 cells, Splenocytes", "setting": "[1]; mouse, in vivo", "value": "0 ± 0 Spots per 300,000 cells"}]}
{"sequence": "NLLRLTGWFFRKSIINFEKL", "values": [{"measurement": "Number of Spots per 4 × 10^5 CD8 T cells: Con A Positive control", "setting": "[1]; mouse, in vivo", "value": "459 ± 149"}, {"measurement": "Number of Spots per 4 × 10^5 CD8 T cells: Medium control", "setting": "[1]; mouse, in vivo", "value": "1.00 ± 1.00"}, {"measurement": "Number of Spots per 4 × 10^5 CD8 T cells: SIINFEKL (SEQ ID NO:868)", "setting": "[1]; mouse, in vivo", "value": "151 ± 20.7"}, {"measurement": "Number of Spots per 4 × 10^5 CD8 T cells: Unpulsed control", "setting": "[1]; mouse, in vivo", "value": "1.67 ± 0.58"}, {"measurement": "Number of Spots per 4 × 10^5 CD8 T cells: VSV control", "setting": "[1]; mouse, in vivo", "value": "0.00 ± 0.00"}, {"measurement": "Number of Spots per 300,000 CD8 T cells: Con A positive control", "setting": "[1]; mouse, in vivo", "value": "688 ± 41.7"}, {"measurement": "Number of Spots per 300,000 CD8 T cells: Medium control", "setting": "[1]; mouse, in vivo", "value": "0.00 ± 0.00"}, {"measurement": "Number of Spots per 300,000 CD8 T cells: SIINFEKL (SEQ ID NO:868)", "setting": "[1]; mouse, in vivo", "value": "211 ± 17.0"}, {"measurement": "Number of Spots per 300,000 CD8 T cells: Unpulsed control", "setting": "[1]; mouse, in vivo", "value": "0.50 ± 0.71"}, {"measurement": "Number of Spots per 300,000 CD8 T cells: VSV control", "setting": "[1]; mouse, in vivo", "value": "1.00 ± 0.00"}, {"measurement": "Number of Spots per 300,000 cells: Medium", "setting": "[1]; mouse, in vivo", "value": "0 ± 0"}, {"measurement": "Number of Spots per 300,000 cells: Medium control", "setting": "[1]; mouse, in vivo", "value": "0.67 ± 0.82"}, {"measurement": "Number of Spots per 300,000 cells: SIINFEKL (SEQ ID NO:868)", "setting": "[1]; mouse, in vivo", "value": "109 ± 14"}, {"measurement": "Number of Spots per 300,000 cells: Unpulsed Splenocytes", "setting": "[1]; mouse, in vivo", "value": "3.0 ± 2.0"}, {"measurement": "Number of Spots per 300,000 cells: Unpulsed control", "setting": "[1]; mouse, in vivo", "value": "0 ± 0"}, {"measurement": "Number of Spots per 300,000 cells: VSV control", "setting": "[1]; mouse, in vivo", "value": "0.67 ± 0.82"}, {"measurement": "Number of Spots per 400,000 cells: Con A positive control", "setting": "[1]; mouse, in vivo", "value": "930 ± 23 spots per 400,000 cells and 1007 ± 17 spots per 400,000 cells and 906 ± 17 spots per 400,000 cells"}, {"measurement": "Number of Spots per 400,000 cells: Medium control", "setting": "[1]; mouse, in vivo", "value": "1.0 ± 1.7 spots per 400,000 cells and 2.0 ± 0.41 spots per 400,000 cells and 1.33 ± 0.41 spots per 400,000 cells"}, {"measurement": "number of spots per 400,000 cells; immunized day 0, analyzed day 7", "setting": "[1]; mouse, in vivo", "value": "72 ± 5.0 spots per 400,000 cells"}, {"measurement": "number of spots per 400,000 cells; immunized day 0, analyzed day 21", "setting": "[1]; mouse, in vivo", "value": "42 ± 7.0 spots per 400,000 cells"}, {"measurement": "number of spots per 400,000 cells; immunized day 0, analyzed day 28", "setting": "[1]; mouse, in vivo", "value": "82 ± 11 spots per 400,000 cells"}, {"measurement": "number of spots per 400,000 cells; immunized days 0, 7, analyzed day 21", "setting": "[1]; mouse, in vivo", "value": "24 ± 6.0 spots per 400,000 cells"}, {"measurement": "number of spots per 400,000 cells; immunized days 0, 14, analyzed day 28", "setting": "[1]; mouse, in vivo", "value": "25 ± 9.0 spots per 400,000 cells"}, {"measurement": "Number of Spots per 300,000 cells: SIINFEKL", "setting": "[1]; mouse, in vivo, sc", "value": "11 ± 1.8"}, {"measurement": "CTL assay: % killing at 200:1 E/T", "setting": "[2]", "value": "9.91 ± 5.57", "unit": "%"}, {"measurement": "number of mice with tumors after 31 days", "setting": "[3]", "value": "Three of 10"}, {"measurement": "Pg/ml IL-2 produced by B3Z cells", "setting": "[4]", "value": "46 ± 11", "unit": "pg/mL"}]}
{"sequence": "SIINFEKL [reference compound]", "values": [{"measurement": "Number of spots per 400,000 cells: SIINFEKL (SEQ ID NO:868)", "setting": "[1]; Ex. 8 (200-17), B6 mice, no added hsp70, 10 μg SIINFEKL or 0.5 μg […]", "value": "2.33 ± 0.41 spots per 400,000 cells"}, {"measurement": "Number of Spots per 400,000 cells: Con A positive control", "setting": "[1]; Ex. 8 (200-17), doses as E40", "value": "928 ± 72 spots per 400,000 cells"}, {"measurement": "Number of Spots per 400,000 cells: Medium control", "setting": "[1]; Ex. 8 (200-17), doses as E40", "value": "0.33 ± 0.41 spots per 400,000 cells"}, {"measurement": "Number of Spots per 400,000 cells: Unpulsed control", "setting": "[1]; Ex. 8 (200-17), doses as E40", "value": "1.33 ± 0.82 spots per 400,000 cells"}, {"measurement": "Number of spots per 400,000 cells: VSV control", "setting": "[1]; Ex. 8 (200-17), doses as E40", "value": "1.7 ± 0.41 spots per 400,000 cells"}, {"measurement": "Number of spots per 400,000 cells: VSV control", "setting": "[1]; Ex. 9 (VSV-72-02), doses as E55", "value": "1.0 ± 1.0 spots per 400,000 cells"}, {"measurement": "number of spots per 400,000 cells; immunized day 0, analyzed day 7", "setting": "[1]; Ex. 17 prime-boost, 2 μg hsp70, 2 μg hsp70 with 4 μg SIINFEKL or 4 μg hybrid antigen, 2 μg hybrid antigen alone, SIINFEKL dose not given", "value": "3.0 ± 2.0 spots per 400,000 cells"}, {"measurement": "number of spots per 400,000 cells; immunized day 0, analyzed day 21", "setting": "[1]; [5]", "value": "0.0 ± 1.0 spots per 400,000 cells"}, {"measurement": "number of spots per 400,000 cells; immunized day 0, analyzed day 28", "setting": "[1]; [5]", "value": "1.0 ± 1.0 spots per 400,000 cells"}, {"measurement": "number of spots per 400,000 cells; immunized days 0, 7, analyzed day 21", "setting": "[1]; [5]", "value": "2.0 ± 1.0 spots per 400,000 cells"}, {"measurement": "number of spots per 400,000 cells; immunized days 0, 14, analyzed day 28", "setting": "[1]; [5]", "value": "1.0 ± 1.0 spots per 400,000 cells"}, {"measurement": "Number of Spots per 400,000 cells: Con A positive control", "setting": "[1]; mouse, in vivo", "value": "478 ± 67 spots per 400,000 cells"}, {"measurement": "Number of Spots per 400,000 cells: Medium control", "setting": "[1]; mouse, in vivo", "value": "0.0 ± 0.0 spots per 400,000 cells"}, {"measurement": "Number of Spots per 400,000 cells: Unpulsed control", "setting": "[1]; mouse, in vivo", "value": "0.0 ± 1.0 spots per 400,000 cells"}, {"measurement": "Number of spots per 400,000 cells: SIINFEKL (SEQ ID NO:868)", "setting": "[1]; mouse, in vivo", "value": "1.0 ± 1.0 spots per 400,000 cells"}, {"measurement": "CTL % killing at 200:1 E/T", "setting": "[2]", "value": 6, "unit": "%"}, {"measurement": "Pg/ml IL-2 produced by B3Z cells", "setting": "[4]; Ex. 12 (200-MF-41), 0.5 ng SIINFEKL, 5 ng […], 1.4 ug hsp70", "value": "2690 ± 369", "unit": "pg/mL"}]}
{"sequence": "NLLRLTGWFFRKIAYFYPEL (SEQ ID NO:913) (Hybrid antigen)", "values": [{"measurement": "Number of Spots per 300,000 cells, Medium", "setting": "[1]; mouse, in vivo", "value": "0 ± 0 Spots per 300,000 cells"}, {"measurement": "Number of Spots per 300,000 cells, Response to Class I epitope when Class I and Class II hybrid antigen admixture is administered", "setting": "[1]; mouse, in vivo", "value": "73 ± 9.8 Spots per 300,000 cells"}, {"measurement": "Number of Spots per 300,000 cells, Response to Class I epitope when Class I hybrid antigen administered", "setting": "[1]; mouse, in vivo", "value": "11 ± 3 Spots per 300,000 cells"}, {"measurement": "Number of Spots per 300,000 cells, Splenocytes", "setting": "[1]; mouse, in vivo", "value": "0 ± 0 Spots per 300,000 cells"}]}
{"sequence": "FFRKSIINFEKLFFRKRGYVYQGL [reference compound]", "values": [{"measurement": "Number of Spots per 300,000 cells: Medium control", "setting": "[1]; mouse, in vivo", "value": "1.7 ± 0.4"}, {"measurement": "Number of Spots per 300,000 cells: RGYVYQGL (SEQ ID NO:879)", "setting": "[1]; mouse, in vivo", "value": "31 ± 5.5"}, {"measurement": "Number of Spots per 300,000 cells: SIINFEKL (SEQ ID NO:868)", "setting": "[1]; mouse, in vivo", "value": "8.3 ± 1.1"}]}
{"sequence": "NLLRLTGWFFRKIAYFYPELFFRKFAPGNYPAL", "values": [{"measurement": "Number of Spots per 300,000 cells: FAPGNYPAL (SEQ ID NO:891)", "setting": "[1]; mouse, in vivo", "value": "136 ± 6.6"}, {"measurement": "Number of Spots per 300,000 cells: IAYFYPEL (SEQ ID NO:904)", "setting": "[1]; mouse, in vivo", "value": "128 ± 9.2"}, {"measurement": "Number of Spots per 300,000 cells: RGYVYQGL (SEQ ID NO:879)", "setting": "[1]; mouse, in vivo", "value": "1.7 ± 0.8"}, {"measurement": "Number of Spots per 300,000 cells: SIINFEKL (SEQ ID NO:868)", "setting": "[1]; mouse, in vivo", "value": "1.7 ± 1.1"}]}
